Measurements taken from the supplement of paper PMC10307832.

Assays:
Experiment in all cases: relative viability (nuclei count vs DMSO), 5 days (fraction); higher = more cells survive
Erlotinib + Crizotinib = compound: C#Cc1cccc(Nc2ncnc3cc(OCCOC)c(OCCOC)cc23)c1 [Erlotinib] + C[C@@H](Oc1cc(-c2cnn(C3CCNCC3)c2)cnc1N)c1c(Cl)ccc(F)c1Cl [Crizotinib] (partner 1 µM)
In short: (§1)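 Lung cancer cell lines were seeded in 1536-well plates and dosed by pin tool the next day, with either a single drug or a fixed anchor-drug dose combined with five library-drug doses (not always all listed) spaced in √10 steps. Five days later, one step fixed the cells and stained their nuclei (final 0.05% Triton X-100, 1% formaldehyde, 1 ug/ml Hoechst), and nuclei were counted on 4× images. Relative viability is the nuclei count in treated wells divided by the count in vehicle wells, and each value is the median of duplicate plates.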

Erlotinib + Foretinib = compound: C#Cc1cccc(Nc2ncnc3cc(OCCOC)c(OCCOC)cc23)c1 [Erlotinib] + COc1cc2c(Oc3ccc(NC(=O)C4(C(=O)Nc5ccc(F)cc5)CC4)cc3F)ccnc2cc1OCCCN1CCOCC1 [Foretinib] (partner 0.25 µM)
In short: as §1

Erlotinib + Decitabine = compound: C#Cc1cccc(Nc2ncnc3cc(OCCOC)c(OCCOC)cc23)c1 [Erlotinib] + Nc1ncn([C@H]2C[C@H](O)[C@@H](CO)O2)c(=O)n1 [Decitabine] (partner 2 µM)
In short: as §1

Erlotinib + Dasatinib = compound: C#Cc1cccc(Nc2ncnc3cc(OCCOC)c(OCCOC)cc23)c1 [Erlotinib] + Cc1nc(Nc2ncc(C(=O)Nc3c(C)cccc3Cl)s2)cc(N2CCN(CCO)CC2)n1 [Dasatinib] (partner 0.075 µM)
In short: as §1

Erlotinib + Trametinib = compound: C#Cc1cccc(Nc2ncnc3cc(OCCOC)c(OCCOC)cc23)c1 [Erlotinib] + CC(=O)Nc1cccc(-n2c(=O)n(C3CC3)c(=O)c3c(Nc4ccc(I)cc4F)n(C)c(=O)c(C)c32)c1 [Trametinib] (partner 0.02 µM)
In short: as §1

Row | Cell Line | relative viability (Erlotinib + Crizotinib; first compound 0.02 µM) | relative viability (Erlotinib + Crizotinib; first compound 0.2 µM) | relative viability (Erlotinib + Crizotinib; first compound 0.6325 µM) | relative viability (Erlotinib + Crizotinib; first compound 2 µM) | relative viability (Erlotinib + Foretinib; first compound 0.02 µM) | relative viability (Erlotinib + Foretinib; first compound 0.2 µM) | relative viability (Erlotinib + Foretinib; first compound 0.6325 µM) | relative viability (Erlotinib + Foretinib; first compound 2 µM) | relative viability (Erlotinib + Decitabine; first compound 0.02 µM) | relative viability (Erlotinib + Decitabine; first compound 0.2 µM) | relative viability (Erlotinib + Decitabine; first compound 0.6325 µM) | relative viability (Erlotinib + Decitabine; first compound 2 µM) | relative viability (Erlotinib + Dasatinib; first compound 0.02 µM) | relative viability (Erlotinib + Dasatinib; first compound 0.2 µM) | relative viability (Erlotinib + Dasatinib; first compound 0.6325 µM) | relative viability (Erlotinib + Dasatinib; first compound 2 µM) | relative viability (Erlotinib + Trametinib; first compound 0.02 µM) | relative viability (Erlotinib + Trametinib; first compound 0.2 µM) | relative viability (Erlotinib + Trametinib; first compound 0.6325 µM) | relative viability (Erlotinib + Trametinib; first compound 2 µM)
1 | HCC-366 | 0.49 | 0.524 | 0.736 | 0.502 | 0.867 | 0.936 | 0.976 | 0.941 | 0.353 | 0.324 | 0.335 | 0.264 | 0.61 | 0.606 | 0.637 | 0.522 | 0.335 | 0.294 | 0.277 | 0.215
2 | NCI-H2087 | 0.882 | 1.06 | 0.871 | 0.849 | 1.12 | 1.18 | 1.12 | 0.964 | 0.286 | 0.238 | 0.282 | 0.208 | 0.799 | 0.821 | 0.923 | 0.735 | 0.219 | 0.185 | 0.19 | 0.138
3 | LU99A | 0.612 | 0.607 | 0.64 | 0.432 | 0.861 | 0.833 | 0.829 | 0.678 | – | 0.92 | 0.983 | 0.765 | 0.556 | 0.474 | 0.584 | 0.475 | 0.705 | 0.583 | 0.643 | 0.484
4 | NCI-H1993 | 0.816 | 0.646 | 0.854 | 0.713 | 0.772 | 0.736 | 0.578 | 0.716 | 0.602 | 0.483 | 0.553 | 0.531 | 0.579 | 0.531 | 0.553 | 0.586 | 0.597 | 0.491 | 0.497 | 0.465
